The text below walks through data of patent US20230398126A1 (priority 2022, published 2023).

The test system of data set [1] is MP12 vaccine and its divergents. Conditions: cited from earlier work.
A further data set concerns virulent RVFVs. Particulars: cited from earlier work.
A further data set relates to MP12 virus. Kind of data set: microbe, parasite or virus in culture. The data set is classed as cell-based. Conditions: Rift Valley fever virus, Vero C1008.
Another data set can be described thus: in vitro. Conditions: African green monkey.

Turning to `O=c1cnn([C@@H]2O[C@H](CO)[C@@H](O)[C@H]2O)c(=O)[nH]1` [Compound 6-azauridine, 6-azauridine], the “inhibition of MP12 vaccine and its divergents” value in data set [1] is “inhibited”. For the same compound, the “antiviral activity on tested virulent RVFVs” value in the data set on virulent RVFVs is reported as “antiviral activity”.

Take `NC(=O)c1ccc2c(c1)n(Cc1cccc(F)c1)c(=O)c1ccnn12` [WMA-RV2]: the EC50 (in general, the midpoint of the concentration-response curve) with MP12 virus was 6.96 µM. Further, the CC50 in “in vitro” was greater than 1280 µM.

Consider `NC(=O)c1ncn([C@@H]2O[C@H](CO)[C@@H](O)[C@H]2O)n1` [Ribavirin], for which the “inhibition of MP12 vaccine and its divergents” value in data set [1] was “inhibited”. For the same compound, the “antiviral activity on tested virulent RVFVs” value in the data set on virulent RVFVs was “antiviral activity”.

`CC(Cl)C(=O)N1CCCN(c2nc3ccccc3nc2-c2ccccc2)CC1` (centres unmarked) [WMA-RV3] registered an EC50 in the data set on MP12 virus of 2.08 µM. Further, the CC50 in the data set “in vitro” turned out to be 363 µM.

Regarding `Cc1nn(-c2ccccc2)c2sc(C(=O)NC(C)C)cc12` [WMA-RV8], the concentration for a half-maximal effect (EC50) in the data set on MP12 virus was found to be 13 µM. Further, the CC50 in the data set “in vitro” is greater than 1280 µM.

With `CC(Cl)C(=O)N1CCN(c2nccc(-c3ccc(C(C)(C)C)cc3)n2)CC1` (centres unmarked) [WMA-RV4], the EC50 in the data set on MP12 virus is 3.19 µM. This compound displayed a CC50 in the data set “in vitro” of 168 µM.

For the compound `Cc1cc(C)c(C)c(S(=O)(=O)N2CCC(c3c[nH]c4c(C)cccc34)CC2)c1C` [WMA-RV5], the EC50 in the data set on MP12 virus is 9.14 µM. The CC50 in the data set “in vitro” was greater than 1280 µM.

`Cc1ccc(CN2CCCN(c3ccc(NC(=O)c4ccccc4C)cn3)CC2)cc1` [WMA-RV6] yielded an EC50 with MP12 virus of 1.03 µM. In addition, in “in vitro”, the CC50 was found to be 692 µM.

Turning to `CN1C(=O)c2cccnc2Sc2cc(C(=O)Nc3ccc(Cl)cc3)ccc21` [WMA-RV1], the EC50 in the data set with MP12 virus was 0.863 µM. The same compound yielded a CC50 in “in vitro” of 320 µM.

With `Cc1ccccc1CN1CCCN(c2cccc(NC(=O)c3cccs3)c2)C1=O` [WMA-RV7], the EC50 in the data set on MP12 virus came to 15.5 µM. This compound returned a CC50 in “in vitro” greater than 1280 µM.
